Where a name gives a salt, the structure may show the parent alone.
Target: PAI-1 (Homo sapiens, UniProt P05121)
Assay: PAI chromogenic substrate assay (first S2251 assay, tPA/plasminogen system)
Assay type: biochemical
Description: In this assay, a compound is incubated with PAI-1 prior to addition to the tPA assay system. Inhibition of PAI-1 results in the production of plasmin from plasminogen. In turn, plasmin cleaves the chromogenic substrate S2251 (Kabi Vitrum) producing pNA (p-nitroaniline) which is detected spectrophotometrically at 405 nm (K. Nilsson et al, Fibrinolysis (1987) 1, 163-168).
Compounds of formula (A) were tested in a PAI chromogenic substrate assay. In the first assay (K. Nilsson, Fibrinolysis (1987) 1, 163-168) each compound was incubated with PAI-1 prior to addition to the tPA assay system. […] In turn, the plasmin cleaved the chromogenic substrate S2251 (Kabi-Vitrum) producing pNA (p-nitroaniline) which was detected spectrophotometrically at 405 nm.

PAI-1, sequence (P05121 24-402): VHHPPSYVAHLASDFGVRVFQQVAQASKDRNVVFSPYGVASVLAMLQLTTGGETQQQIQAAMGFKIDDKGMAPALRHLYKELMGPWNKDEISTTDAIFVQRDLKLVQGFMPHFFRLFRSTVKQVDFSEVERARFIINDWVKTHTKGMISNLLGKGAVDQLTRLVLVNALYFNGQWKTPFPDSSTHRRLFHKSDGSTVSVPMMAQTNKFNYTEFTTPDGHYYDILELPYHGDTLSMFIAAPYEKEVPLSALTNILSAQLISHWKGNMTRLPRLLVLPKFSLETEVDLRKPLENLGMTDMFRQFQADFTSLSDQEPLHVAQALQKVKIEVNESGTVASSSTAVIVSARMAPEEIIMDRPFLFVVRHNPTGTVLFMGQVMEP

| SMILES | Inhibition of PAI-1 in the first S2251 chromogenic substrate assay (Concentration 12.5 μm) | Inhibition of PAI-1 in the first S2251 chromogenic substrate assay (Concentration 25 μm) | Inhibition of PAI-1 in the first S2251 chromogenic substrate assay (Concentration 50 μm) | Inhibition of PAI-1 in the first S2251 chromogenic substrate assay (Concentration 100 μm) | Inhibition of PAI-1 in the first S2251 chromogenic substrate assay (Concentration 6.25 μm) | further results |
| --- | --- | --- | --- | --- | --- | --- |
| CC(=O)Nc1ccc(/C=c2\[nH]c(=O)/c(=C/c3ccc(CNC(=O)OC(C)(C)C)cc3)[nH]c2=O)cc1 [Compound 68, (3Z,6Z)-3-(4-Acetamidobenzylidene)-6-(4-tert-butoxycarbonylaminomethylbenzylidene)-2,5-piperazinedione] | 37% | 67% | 89% | 63% |  |  |
| Nc1ccc(/C=c2\[nH]c(=O)/c(=C/c3ccccc3)[nH]c2=O)cc1 [Compound 30, (3Z,6Z)-3-(4-Aminobenzylidene)-6-benzylidene-2,5-piperazinedione] | 2% | 5% | 23% | 66% |  |  |
| CC(C)(C)OC(=O)NCc1ccc(/C=c2\[nH]c(=O)/c(=C/c3ccccc3)[nH]c2=O)cc1 [Compound 66] | 2% | 46% | 70% | 85% |  |  |
| COc1ccc(/C=c2\[nH]c(=O)/c(=C/c3ccc(NC(C)=O)cc3)[nH]c2=O)cc1OC [Compound 92] | 12% | 38% | 44% | 86% | 17% |  |
| CC(=O)Nc1ccc(/C=c2\[nH]c(=O)/c(=C/c3ccccc3F)[nH]c2=O)cc1 [Compound 71, (3Z,6Z)-3-(4-Acetamidobenzylidene)-6-(2-fluorobenzylidene)-2,5-piperazinedione] |  |  |  |  |  | Inhibition of PAI-1 in the first S2251 chromogenic substrate assay (Concentration 3.75 μm): 1%; Inhibition of PAI-1 in the first S2251 chromogenic substrate assay (Concentration 7.5 μm): 1%; Inhibition of PAI-1 in the first S2251 chromogenic substrate assay (Concentration 15 μm): 51%; Inhibition of PAI-1 in the first S2251 chromogenic substrate assay (Concentration 30 μm): 64%; Inhibition of PAI-1 in the first S2251 chromogenic substrate assay (Concentration 60 μm): 52% |
| COc1ccc(/C=c2\[nH]c(=O)/c(=C/c3ccc(S(C)(=O)=O)cc3)[nH]c2=O)cc1 [Compound 46, (3Z,6Z)-3-(4-Methoxybenzylidene)-6-(4-methylsulfonylbenzylidene)-2,5-piperazinedione] | 14% | 38% | 42% | 39% |  |  |
| CC(C)Oc1ccc(/C=c2\[nH]c(=O)/c(=C/c3ccccc3)[nH]c2=O)cc1 [Compound 52, (3Z,6Z)-6-Benzylidene-3-(4-isopropoxybenzylidene)-2,5-piperazinedione] | 2% | 15% | 45% | 68% |  |  |
| CN(C)CCOc1ccc(/C=c2\[nH]c(=O)/c(=C/c3ccccc3)[nH]c2=O)cc1 [Compound 99, (3Z,6Z)-6-Benzylidene-3-(4-(2-N,N-dimethylaminoethoxy)benzylidene)-2,5-piperazinedione, hydrochloride] |  |  |  |  |  | Inhibition of PAI-1 in the first S2251 chromogenic substrate assay (Concentration 2.5 μm): 0%; Inhibition of PAI-1 in the first S2251 chromogenic substrate assay (Concentration 5 μm): 0%; Inhibition of PAI-1 in the first S2251 chromogenic substrate assay (Concentration 10 μm): 17%; Inhibition of PAI-1 in the first S2251 chromogenic substrate assay (Concentration 20 μm): 48%; Inhibition of PAI-1 in the first S2251 chromogenic substrate assay (Concentration 40 μm): 68% |
| CC(=O)Oc1ccccc1/C=c1\[nH]c(=O)/c(=C/c2ccccc2)[nH]c1=O [Compound 32, (3Z,6Z)-3-(2-Acetoxybenzylidene)-6-benzylidene-2,5-piperazinedione] | 1% | 3% | 36% | 87% | 0% |  |
| COc1ccc(/C=c2\[nH]c(=O)/c(=C/c3cccc(CSC(C)=O)c3)[nH]c2=O)cc1 [Compound 63, (3Z,6Z)-3-(4-Methoxybenzylidene)-6-(3-thioacetoxymethylbenzylidene)-2,5-piperazinedione] | 36% | 44% | 70% | 69% |  |  |
| O=c1[nH]/c(=C\c2cccc(CS)c2)c(=O)[nH]/c1=C\c1ccccc1 [Compound 64, (3Z,6Z)-6-Benzylidene-3-(3-mercaptomethylbenzylidene)-2,5-piperazinedione] |  |  |  |  |  | Inhibition of PAI-1 in the first S2251 chromogenic substrate assay (Concentration 7.5 μm): 17%; Inhibition of PAI-1 in the first S2251 chromogenic substrate assay (Concentration 15 μm): 63%; Inhibition of PAI-1 in the first S2251 chromogenic substrate assay (Concentration 30 μm): 87%; Inhibition of PAI-1 in the first S2251 chromogenic substrate assay (Concentration 60 μm): 100% |
| CC(=O)NCc1ccc(/C=c2\[nH]c(=O)/c(=C/c3ccccc3)[nH]c2=O)cc1 [Compound 44, (3Z,6Z)-3-(4-Acetamidomethylbenzylidene)-6-benzylidene-2,5-piperazinedione] | 1% | 1% | 2% | 51% | 1% |  |
| COc1ccc(/C=c2\[nH]c(=O)/c(=C/c3ccc(CSC)cc3)[nH]c2=O)cc1 [Compound 57, (3Z,6Z)-3-(4-Methoxybenzylidene)-6-(4-methylthiomethylbenzylidene)-2,5-piperazinedione] | 2% | 38% | 72% | 82% |  |  |
| COc1ccc(/C=c2\[nH]c(=O)/c(=C/c3ccc(OC(=O)C(C)(C)C)cc3)[nH]c2=O)cc1 [Compound 81, (3Z,6Z)-3-(4-Methoxybenzylidene)-6-(4-trimethylacetoxybenzylidene)-2,5-piperazinedione] | 0% | 1% | 1% | 64% |  |  |
| COc1ccc(/C=c2\[nH]c(=O)/c(=C/c3c(Cl)cccc3Cl)[nH]c2=O)cc1 [Compound 29, (3Z,6Z)-3-(2,6-Dichlorobenzylidene)-6-(4-methoxybenzylidene)-2,5-piperazinedione] | 1% | 34% | 76% | 80% | 0% |  |

The next lines start with results.

| Inhibition of PAI-1 in the first S2251 chromogenic substrate assay (Concentration 12.5 μm) | Inhibition of PAI-1 in the first S2251 chromogenic substrate assay (Concentration 25 μm) | Inhibition of PAI-1 in the first S2251 chromogenic substrate assay (Concentration 50 μm) | Inhibition of PAI-1 in the first S2251 chromogenic substrate assay (Concentration 100 μm) | Inhibition of PAI-1 in the first S2251 chromogenic substrate assay (Concentration 6.25 μm) | SMILES | further results |
| --- | --- | --- | --- | --- | --- | --- |
| 4% | 36% | 57% | 30% | 2% | CC(=O)Nc1ccc(/C=c2\[nH]c(=O)/c(=C/c3ccccc3C(F)(F)F)[nH]c2=O)cc1 [Compound 78, (3Z,6Z)-6-(4-Acetamidobenzylidene)-3-(2-trifluoromethylbenzylidene)-2,5-piperazinedione] |  |
| 0% | 2% | 35% | 79% | 0% | O=c1[nH]/c(=C\c2c(Cl)cccc2Cl)c(=O)[nH]/c1=C\c1ccccc1 [Compound 21, (3Z,6Z)-6-Benzylidene-3-(2,6-dichlorobenzylidene)-2,5-piperazinedione] |  |
| 0% | 1% | 0% | 50% |  | O=c1[nH]/c(=C\c2ccc(F)cc2F)c(=O)[nH]/c1=C\c1ccccc1 [Compound 54, (3Z,6Z)-6-Benzylidene-3-(2,4-difluorobenzylidene)-2,5-piperazinedione] |  |
| 0% | 3% | 72% | 50% | 0% | COc1ccc(/C=c2\[nH]c(=O)/c(=C/c3ccc(OC)c(OC)c3)[nH]c2=O)cc1 [Compound 91, (3Z,6Z)-3-(3,4-Dimethoxybenzylidene)-6-(4-methoxybenzylidene)-2,5-piperazinedione] |  |
| 1% | 8% | 47% | 60% |  | COc1ccc(/C=c2\[nH]c(=O)/c(=C/c3ccc(OC(C)C)cc3)[nH]c2=O)cc1 [Compound 49, (3Z,6Z)-3-(4-isopropoxybenzylidene)-6-(4-methoxybenzylidene)-2,5-piperazinedione] |  |
| 0% | 1% | 9% | 53% |  | COc1ccc(/C=c2\[nH]c(=O)/c(=C/c3ccc(C(N)=O)cc3)[nH]c2=O)cc1 [Compound 80, 4-[(3Z,6Z)-6-(4-Methoxybenzylidene)-2,5-dioxopiperazin-3-ylidene]methylbenzamide] |  |

From patent US5700804A, “Pharmaceutical compounds” (Xenova Limited, priority 1992, dated 1997)
